Test results from patent publication US20260234159A1, “SMALL MOLECULE TREATMENT OF FATTY LIVER DISEASE AND HCC” (SCANDIEDGE THERAPEUTICS AB, priority 2023, published 2026).

Key:
JNK1/2/3 = assay: Western blot, JNK1/2/3 P54 and p46 isoforms; format: cell-based, human; conditions: 10 μM, 2 days
Protocol: HepG2 cells were seeded into a 6-well plate at 400,000 cells per well. After treatment with 10 μM of JNK-IN-5A and its derivatives for two days, lysates were harvested with CelLytic M (C2978, Sigma-Aldrich). […] SDS PAGE were performed using Mini-PROTEAN® TGX™ Precast Gels (Bio-Rad) and transferred using Trans-Blot® Turbo™ Transfer System (Bio-Rad). […] ImageQuantTMLAS 500 (29-0050-63, GE) was used to detect protein bands.

[1] = In vivo toxicological study in rats: haematology; parameters: species or system rats of the Wistar strain
Protocol: Forty-two male and forty-two female rats of the Wistar strain were allocated to the study. Three groups of three males and three females were given doses of 30, 100 and 300 mg/kg of target compounds (Table 8). The vehicle was 1.5 w/w % HPMC, 1.5 w/w % PS80 in 10 mM PBS, pH 7 and dose volume were 5 mL/kg. The animals were acclimatised at least 14 day prior to the study and exposed to a 12 hours light, 12 hours dark light cycle. The formulations were administered via oral gavage. Administration occurred once daily in the morning for seven consecutive days. Blood for scheduled haematology and plasma chemistry were taken at necropsy. For plasma chemistry, 0.6 ml blood (lithium heparin) per animal and for haematology, 0.5 ml blood (K2EDTA) per animal. The blood and plasma were analysed using Exigo analyzer and Vetscan equipment. Blood was analysed within 60 min of sampling. On the morning of analysis, the Exigo analyzer was checked against a reference sample provided by the manufacturer, and a control sample analysis cycle was performed (Table 9).

[2] = In vivo toxicological study in rats: clinical observations and body weight; conditions: 300 mg/kg oral administration
Protocol: Forty-two male and forty-two female rats of the Wistar strain were allocated to the study. Three groups of three males and three females were given doses of 30, 100 and 300 mg/kg of target compounds (Table 8). The vehicle was 1.5 w/w % HPMC, 1.5 w/w % PS80 in 10 mM PBS, pH 7 and dose volume were 5 mL/kg.
The animals were acclimatised at least 14 day prior to the study and exposed to a 12 hours light, 12 hours dark light cycle. The formulations were administered via oral gavage. Administration occurred once daily in the morning for seven consecutive days.
A check of animal health and welfare status was done at least once on working days and weekend days.
Body weights were recorded the week before and within 24 hours before start of dosing, on Day 3 and on necropsy Day 8.

HepG2 cells = assay: Invasion assay (transwell); format: cell-based, human; conditions: Homo sapiens, HepG2, 24 hr, read-out: invasiveness reduced by
How it was run: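 HepG2 cells (100,000) in serum-free medium with compounds placed on collagen-coated 8 μm transwell membranes, with 10% FBS medium below as attractant. After one day at 37 °C, cells fixed in formaldehyde and stained with crystal violet. Invaded cells on the outer membrane imaged and counted.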

[3] = female, 30 mg/kg oral daily 7 d
[4] = female, 100 mg/kg oral daily 7 d
[5] = female, 300 mg/kg oral daily 7 d

With `N#Cc1c(NC(=O)c2cccc3ccccc23)sc2c1CCN(C(=O)Nc1ccccc1OC(F)(F)F)C2` [PKL-A159] the “JNK1/2/3 p46 expression” value (JNK1/2/3) was “not significantly altered”, the GRAN [1, 3] was 0.80 10^9/l and the HCT [1, 3] was 40.3%. For the same compound, the HGB [1, 3] was 14.4 g/dL, the LYM [1, 3] was 4.9 10^9/l and the MCH [1, 3] was 19.4 pg. The MCHC [1, 3] was 35.7 g/dL, the MCV [1, 3] was 54.5 fL and the MONO [1, 3] was 0.13 10^9/l. The PLT [1, 3] was 1028 10^9/l, the RBC [1, 3] was 7.39 10^12/l and the RDW % [1, 3] was 14.1%. For the same compound, the WBC [1, 3] was 5.9 10^9/l, the GRAN [1, 4] was 0.77 10^9/l and the HCT [1, 4] was 41.2%. The HGB [1, 4] was 14.5 g/dL, the LYM [1, 4] was 5.8 10^9/l and the MCH [1, 4] was 18.9 pg. The MCHC [1, 4] was 35.2 g/dL, the MCV [1, 4] was 53.8 fL and the MONO [1, 4] was 0.10 10^9/l. The PLT [1, 4] was 994 10^9/l, the RBC [1, 4] was 7.66 10^12/l and the RDW % [1, 4] was 14.6%. The WBC [1, 4] was 6.7 10^9/l, the GRAN [1, 5] was 0.93 10^9/l and the HCT [1, 5] was 41.1%. For the same compound, the HGB [1, 5] was 14.5 g/dL, the LYM [1, 5] was 5.3 10^9/l and the MCH [1, 5] was 19.4 pg. For the same compound, the MCHC [1, 5] was 35.2 g/dL, the MCV [1, 5] was 55.2 fL and the MONO [1, 5] was 0.17 10^9/l. The PLT [1, 5] was 808 10^9/l, the RBC [1, 5] was 7.45 10^12/l and the RDW % [1, 5] was 14.4%. The WBC [1, 5] was 6.4 10^9/l, the GRAN ([1]; male, 30 mg/kg oral daily 7 d) was 1.03 10^9/l and the HCT ([1]; male, 30 mg/kg oral daily 7 d) was 40.9%. For the same compound, the HGB ([1]; male, 30 mg/kg oral daily 7 d) was 14.5 g/dL, the LYM ([1]; male, 30 mg/kg oral daily 7 d) was 2.8 10^9/l and the MCH ([1]; male, 30 mg/kg oral daily 7 d) was 19.9 pg. For the same compound, the MCHC ([1]; male, 30 mg/kg oral daily 7 d) was 35.4 g/dL, the MCV ([1]; male, 30 mg/kg oral daily 7 d) was 56.3 fL and the MONO ([1]; male, 30 mg/kg oral daily 7 d) was 0.10 10^9/l. The PLT ([1]; male, 30 mg/kg oral daily 7 d) was 1117 10^9/l, the RBC ([1]; male, 30 mg/kg oral daily 7 d) was 7.26 10^12/l and the RDW % ([1]; male, 30 mg/kg oral daily 7 d) was 15.1%. For the same compound, the WBC ([1]; male, 30 mg/kg oral daily 7 d) was 3.9 10^9/l, the GRAN ([1]; male, 100 mg/kg oral daily 7 d) was 1.43 10^9/l and the HCT ([1]; male, 100 mg/kg oral daily 7 d) was 42.4%. For the same compound, the HGB ([1]; male, 100 mg/kg oral daily 7 d) was 14.9 g/dL, the LYM ([1]; male, 100 mg/kg oral daily 7 d) was 7.1 10^9/l and the MCH ([1]; male, 100 mg/kg oral daily 7 d) was 19.9 pg. The MCHC ([1]; male, 100 mg/kg oral daily 7 d) was 35.3 g/dL, the MCV ([1]; male, 100 mg/kg oral daily 7 d) was 56.4 fL and the MONO ([1]; male, 100 mg/kg oral daily 7 d) was 0.23 10^9/l. For the same compound, the PLT ([1]; male, 100 mg/kg oral daily 7 d) was 974 10^9/l, the RBC ([1]; male, 100 mg/kg oral daily 7 d) was 7.51 10^12/l and the RDW % ([1]; male, 100 mg/kg oral daily 7 d) was 15.4%. The WBC ([1]; male, 100 mg/kg oral daily 7 d) was 8.7 10^9/l, the GRAN ([1]; male, 300 mg/kg oral daily 7 d) was 1.00 10^9/l and the HCT ([1]; male, 300 mg/kg oral daily 7 d) was 42.4%. For the same compound, the HGB ([1]; male, 300 mg/kg oral daily 7 d) was 14.8 g/dL, the LYM ([1]; male, 300 mg/kg oral daily 7 d) was 4.6 10^9/l and the MCH ([1]; male, 300 mg/kg oral daily 7 d) was 19.6 pg. For the same compound, the MCHC ([1]; male, 300 mg/kg oral daily 7 d) was 35.1 g/dL, the MCV ([1]; male, 300 mg/kg oral daily 7 d) was 55.8 fL and the MONO ([1]; male, 300 mg/kg oral daily 7 d) was 0.10 10^9/l. For the same compound, the PLT ([1]; male, 300 mg/kg oral daily 7 d) was 1200 10^9/l, the RBC ([1]; male, 300 mg/kg oral daily 7 d) was 7.59 10^12/l and the RDW % ([1]; male, 300 mg/kg oral daily 7 d) was 15.3%. For the same compound, the WBC ([1]; male, 300 mg/kg oral daily 7 d) was 5.7 10^9/l, the “tolerability (adverse clinical signs, body weight, clinical pathology parameters)” value [2] was “well tolerated” and the inhibition at 1 µM (HepG2 cells) was 77.8%.

For `N#Cc1c(NC(=O)c2cccc3ccccc23)sc2c1CCN(CC(=O)Nc1cccc(Br)c1)C2` [PKL-B171], the “JNK1/2/3 p46 expression” value (JNK1/2/3) was 0.87 times, the GRAN [1, 3] was 0.77 10^9/l and the HCT [1, 3] was 43.0%. The HGB [1, 3] was 15.3 g/dL, the LYM [1, 3] was 4.6 10^9/l and the MCH [1, 3] was 18.9 pg. For the same compound, the MCHC [1, 3] was 35.6 g/dL, the MCV [1, 3] was 53.3 fL and the MONO [1, 3] was 0.13 10^9/l. The PLT [1, 3] was 933 10^9/l, the RBC [1, 3] was 8.08 10^12/l and the RDW % [1, 3] was 14.6%. For the same compound, the WBC [1, 3] was 5.5 10^9/l, the GRAN [1, 4] was 0.77 10^9/l and the HCT [1, 4] was 40.8%. For the same compound, the HGB [1, 4] was 14.4 g/dL, the LYM [1, 4] was 4.4 10^9/l and the MCH [1, 4] was 19.7 pg. The MCHC [1, 4] was 35.4 g/dL, the MCV [1, 4] was 55.5 fL and the MONO [1, 4] was 0.10 10^9/l. For the same compound, the PLT [1, 4] was 1106 10^9/l, the RBC [1, 4] was 7.36 10^12/l and the RDW % [1, 4] was 14.1%. For the same compound, the WBC [1, 4] was 5.2 10^9/l, the GRAN [1, 5] was 1.23 10^9/l and the HCT [1, 5] was 40.5%. The HGB [1, 5] was 14.4 g/dL, the LYM [1, 5] was 5.7 10^9/l and the MCH [1, 5] was 19.1 pg. For the same compound, the MCHC [1, 5] was 35.7 g/dL, the MCV [1, 5] was 53.5 fL and the MONO [1, 5] was 0.17 10^9/l. The PLT [1, 5] was 1027 10^9/l, the RBC [1, 5] was 7.55 10^12/l and the RDW % [1, 5] was 14.2%. The WBC [1, 5] was 7.1 10^9/l, the GRAN ([1]; male, 30 mg/kg oral daily 7 d) was 1.17 10^9/l and the HCT ([1]; male, 30 mg/kg oral daily 7 d) was 40.6%. The HGB ([1]; male, 30 mg/kg oral daily 7 d) was 14.4 g/dL, the LYM ([1]; male, 30 mg/kg oral daily 7 d) was 6.3 10^9/l and the MCH ([1]; male, 30 mg/kg oral daily 7 d) was 19.7 pg. For the same compound, the MCHC ([1]; male, 30 mg/kg oral daily 7 d) was 35.4 g/dL, the MCV ([1]; male, 30 mg/kg oral daily 7 d) was 55.5 fL and the MONO ([1]; male, 30 mg/kg oral daily 7 d) was 0.17 10^9/l. For the same compound, the PLT ([1]; male, 30 mg/kg oral daily 7 d) was 991 10^9/l, the RBC ([1]; male, 30 mg/kg oral daily 7 d) was 7.31 10^12/l and the RDW % ([1]; male, 30 mg/kg oral daily 7 d) was 14.8%. The WBC ([1]; male, 30 mg/kg oral daily 7 d) was 7.7 10^9/l, the GRAN ([1]; male, 100 mg/kg oral daily 7 d) was 1.30 10^9/l and the HCT ([1]; male, 100 mg/kg oral daily 7 d) was 43.2%. For the same compound, the HGB ([1]; male, 100 mg/kg oral daily 7 d) was 15.2 g/dL, the LYM ([1]; male, 100 mg/kg oral daily 7 d) was 6.6 10^9/l and the MCH ([1]; male, 100 mg/kg oral daily 7 d) was 20.1 pg. The MCHC ([1]; male, 100 mg/kg oral daily 7 d) was 35.2 g/dL, the MCV ([1]; male, 100 mg/kg oral daily 7 d) was 57.1 fL and the MONO ([1]; male, 100 mg/kg oral daily 7 d) was 0.17 10^9/l. For the same compound, the PLT ([1]; male, 100 mg/kg oral daily 7 d) was 981 10^9/l, the RBC ([1]; male, 100 mg/kg oral daily 7 d) was 7.57 10^12/l and the RDW % ([1]; male, 100 mg/kg oral daily 7 d) was 14.9%. For the same compound, the WBC ([1]; male, 100 mg/kg oral daily 7 d) was 8.1 10^9/l, the GRAN ([1]; male, 300 mg/kg oral daily 7 d) was 1.40 10^9/l and the HCT ([1]; male, 300 mg/kg oral daily 7 d) was 43.6%. The HGB ([1]; male, 300 mg/kg oral daily 7 d) was 15.4 g/dL, the LYM ([1]; male, 300 mg/kg oral daily 7 d) was 7.0 10^9/l and the MCH ([1]; male, 300 mg/kg oral daily 7 d) was 19.6 pg. For the same compound, the MCHC ([1]; male, 300 mg/kg oral daily 7 d) was 35.4 g/dL, the MCV ([1]; male, 300 mg/kg oral daily 7 d) was 55.4 fL and the MONO ([1]; male, 300 mg/kg oral daily 7 d) was 0.20 10^9/l. The PLT ([1]; male, 300 mg/kg oral daily 7 d) was 1115 10^9/l, the RBC ([1]; male, 300 mg/kg oral daily 7 d) was 7.87 10^12/l and the RDW % ([1]; male, 300 mg/kg oral daily 7 d) was 15.1%. The WBC ([1]; male, 300 mg/kg oral daily 7 d) was 8.6 10^9/l, the “tolerability (adverse clinical signs, body weight, clinical pathology parameters)” value [2] was “well tolerated” and the inhibition at 1 µM (HepG2 cells) was 21.4%.
